No end group written: not given here.
Tests used:
LN229 glioblastoma cells = assay: Cell number after peptide treatment, LN229; format: cell-based, human; details: for growth and survival of LN229 cells: 6 days, 0 μM to 50 μM, stock without BSA
Procedure: In some implementations, the mixture of arg/glu may be added at a molarity of, or of about 5 mM, 10 mM, 15 mM, 20 mM, 25 mM, or 30 mM.
(§1) Replicate cultures were exposed to the peptides the for 6 days at the indicated concentrations. Stock solutions of the peptides were prepared in buffer without added bovine serum albumin (BSA).

MCF7 breast cancer cells = assay: Cell number after peptide treatment, MCF7; format: cell-based; details: 6 days, 0 μM to 50 μM; stock without BSA
Procedure: as §1
Replicate cultures of HCT116, MDA-MB 231, MCF7, and T98G cells were exposed to a 50/50 by concentration mixture of CP-DN-CEBPB and CP-DN-CEBPD for 6 days at doses of 0 μM to 50 μM. Stock solutions of the peptides were prepared in buffer without added bovine serum albumin (BSA).
Replicate cultures of T98G, HCT116, MDA-MB 231, and MCF7 cells were exposed to CP-DN-CEBPB, CP-DN-CEBPD, or a CP-DN-CEBPD in which heptad repeat leucine residues were mutated to glycine residues for 6 days at doses of 0 μM to 50 μM. Stock solutions of the peptides were prepared in buffer without added bovine serum albumin (BSA).

[1] = system: B16 murine melanoma cells; assay: Cell number after peptide treatment, B16; format: cell-based; details: 6 days, 0 μM to 50 μM; stock without BSA
Procedure: as §1

[2] = system: HIEC-6 non-cancer human intestinal epithelial cells; assay: Cell number after peptide treatment, HIEC-6; format: cell-based; details: 6 days, 0 μM to 50 μM; stock without BSA
Procedure: Replicate cultures of HIEC-6 non-cancer human intestinal epithelial cells, MCF10A non-cancer human breast epithelial cells, or normal human astrocytes were exposed to CP-DN-CEBPB or CP-DN-CEBPD, for 6 days at doses of 0 μM to 50 μM. […] Stock solutions of the peptides were prepared in buffer without added bovine serum albumin (BSA).

HCT116 cells = assay: Colony forming activity in soft agar, HCT116; format: cell-based; details: 6 days; doses 0.05, 0.5 and 5 μM
Procedure: T98G (FIG. 21A), MDA-MB 231 (FIG. 21B), and HCT116 (FIG. 21C) cells were exposed to CP-DN-CEBPB and CP-DN-CEBPD for 6 days at doses of 0.05 μM 0.5 μM, and 5 μM while growing in soft agar. Growth was inhibited by does as low as 0.5 μM. T98G (FIG. 21D), MDA-MB 231 (FIG. 21E), and HCT116 (FIG. 21F) cells were exposed to CP-DN-CEBPB and CP-DN-CEBPD for 6 days at doses of 0.05 μM 0.5 μM, and 5 μM while growing on culture plates. Growth was inhibited by does as low as 0.5 μM.

MDA-MB-231 cells [3] = assay: Apoptotic nuclei, propidium iodide flow cytometry, MDA-MB-231; format: cell-based; details: 20 μM, 3 days, vs untreated cells
Procedure: MDA-MB-231, MCF7, HCT116 and T98G cancer cell lines were treated for 3 days with 20 μM CP-dn-CEBPB and CP-dn-CEBPD peptides from stock solutions prepared without additives. Cultures were stained with propidium iodide and assessed for proportion of cells with apoptotic nuclei by flow cytometry.

MDA-MB-231 cells [4] = assay: Combination with paclitaxel, cell number, MDA-MB-231; format: cell-based; details: 1 nM or 5 nM paclitaxel and 3, 10 or 20 μM peptide, 6 days
Procedure: (§2) Replicate cultures of T98G, MDA-MB 231, and MCF7 cells were treated with 1 nM or 5 nM paclitaxel and 3 μM, 10 μM, or 20 μM CP-dn-CEBPB and CP-dn-CEBPD peptides, maintained for 6 days, and then assessed for cell number. The bar graphs of FIGS. 26A (T98G, CP-dn-CEBPB), 26C (T98G, CP-dn-CEBPBD, 26E (MDA-MB-231, CP-dn-CEBPBD), 26G (MDA-MB-231, CP-dn-CEBPD), 26I (MCF7, CP-dn-CEBPBB), and 26K (MCF7, CP-dn-CEBPBD) show relative cell numbers for each condition as compared to untreated controls. The line graphs of FIGS. 26B (T98G, CP-dn-CEBPB), 26D (T98G, CP-dn-CEBPBD), 26F (MDA-MB-231, CP-dn-CEBPB), 26H (MDA-MB-231, CP-dn-CEBPD), 26J (MCF7, CP-dn-CEBPB), and 26L (MCF7 CP-dn-CEBPBD) show the response as normalized in each case so that 100 represents the relative number of surviving cells that received the indicated level of paclitaxel, but no peptide treatment. Calculated combination indices (CI) were as follows: MCF7: CI=0.41±0.04 for CP-dn-CEBPB; 0.44±0.04 for CP-dn-CEBPD; MDA-MB-231: 0.74±0.03 for CP-dn-CEBPB; 0.74±0.05 for CP-dn-CEBPD; T98G: CI=0.84±0.06 for CP-dn-CEBPB and 0.75±0.07 for CP-dn-CEBPD.

[5] = system: T98G, MDA-MB 231, and MCF7 cells; assay: Combination with paclitaxel, overall conclusion; format: cell-based; details: co-treatment, cell number or colony number
Procedure: as §2
Replicate cultures of MDA-MB-231 cells in soft agar were treated with 0.1 nM or 0.5 nM 50 nM or 500 nM CP-dn-CEBPB and CP-dn-CEBPD peptides, maintained for 12 days, and then assessed for colony number. […]

[6] = system: BCL2, MCL1 and survivin proteins; assay: Western immunoblotting for pro-survival proteins; format: cell-based; details: 20 μM, 3 days; T98G, HCT116, MDA-MB-231 and MCF7 cell lines
Procedure: T98G, HCT116, MDA-MB-231, and MCF7 cell lines were exposed to 0 or 20 μM CP-dn-CEBPB or CP-dn-CEBPD for 3 days and then assessed by Western immunoblotting for levels of BCL2, MCL1 and survivin proteins with actin as loading control (FIG. 34A). Remaining panels show amounts of surviving (FIG. 34B), BCL2 (FIG. 34C) and MCL1 (FIG. 34D) were quantified relative to actin in multiple experiments.

Sequence | growth and survival of LN229 cells (LN229 glioblastoma cells) | effect of adding arg/glu mixture at 2 mM (LN229 glioblastoma cells; cultured LN229 cells) | growth and survival / numbers of MCF7 cells (MCF7 breast cancer cells) | growth and survival of B16 cells [1] | number of HIEC-6 cells [2] | lowest dose at which growth was inhibited, soft agar (HCT116 cells) [µM] | proportion of cells with apoptotic nuclei (MDA-MB-231 cells [3]) | combination index (CI) with paclitaxel (MDA-MB-231 cells [4]) | kind of combined effect with paclitaxel [5] | levels of BCL2, MCL1 and survivin proteins relative to actin [6] | shift of IC50 by 20 mM arginine and glutamate (LN229 glioblastoma cells; cultured LN229 cells) [fold]
RQIKIWFQNRRMKWKKLETQHKVLELTAENERLQKKVEQLSRELSTLRNLFKQL [CP-DN-CEBPB] | decrease in growth and survival | only minimal effect | decrease in growth and survival | decrease in growth and survival | did not cause a dose-dependent decrease | 0.5 | increased apoptotic cell death | 0.74±0.03 | synergistic effect | surpress expression of pro-survival proteins | 
RQIKIWFQNRRMKWKKLVELSAENEKLHQRVEQLTRDLAGLRQFFK [CP-DN-CEBPD] | decrease in growth and survival | only minimal effect | decrease in growth and survival | decrease in growth and survival | did not cause a dose-dependent decrease | 0.5 | increased apoptotic cell death | 0.74±0.05 | synergistic effect | surpress expression of pro-survival proteins | 10
